Measured values reported in patent US20130315843A1, “COMPOSITION FOR REDUCTION OF TRPA1 AND TRPV1 SENSATIONS” (priority 2012, published 2013).
Like-named read-outs stand apart in the source and are kept apart here.

Experiments:
human TRPA1 [1] = target: T1, human TRPA1 (Homo sapiens, UniProt O75762); assay: FLIPR Ca2+ assay, block of AITC activation of TRPA1; assay type: cell-based; set-up: expressed in transfected cells
Procedure: Intracellular Ca^++ levels were measured using cell based assays as described for EXAMPLES 1, 2, and 3.

human TRPA1 [2] = target: T1, human TRPA1; assay: FLIPR Ca2+ assay, reduction of L-Menthol activation of TRPA1
Procedure: In order to determine whether TRPA1 is activated, the intracellular calcium ion (Ca^2+) level from transfected cells with the TRPA1 receptor gene was measured. HEK-2 cells stably transfected with human TRPA1 were grown in 15 ml growth medium [high glucose DMEM (Dulbecco's Modification of Eagle's Medium) supplemented with 10% FBS (fetal bovine serum), 100 μg/ml Penicillin/streptomycin, 100 μg/ml G418] in a 75 Cm^2 flask for 3 days at 37° C. in a mammalian cell culture incubator set at 5% CO2. Cells were detached with addition of 10 ml of PBS (phosphate buffered saline) by hand shaking gently and transferred to a 50 ml tube and centrifuged at 850 rpm for 3 minutes to remove PBS. After centrifugation, a pellet of cells was formed in the bottom of the tube separating them from the supernatant solution. […] Fluo-4 is a fluorescent dye used for quantifying cellular Ca^2+ concentrations in the 100 nM to 1 μM range.
The pelleted cells were re-suspended in 10 ml assay buffer and 90 μl aliquots (˜50,000 cells) per well delivered to a 96-well assay plate containing 10 μl of test compounds (1 mM in assay buffer, final concentration 100 μM) or buffer control and incubated at room temperature for 30 minutes. After 30 minutes, the plate was placed into a fluorometric imaging plate reader (FLIPR384 from Molecular Devices) and basal fluorescence recorded (excitation wave length 488 nm and emission wave length 510 nm). Then 20 μl of the molecule being tested as a TRPA1 antagonist was added and fluorescence recorded. For determining the direct effect of test compounds on TRPA1, fluorescence was measured immediately after addition of each compound.
To determine if a compound was an antagonist or a desensitizer the direct effect of a test compound was determined. For determining the direct effect of test compounds on TRPA1 receptor activation, 100 μl aliquots (˜50,000 cells) of cells prepared as described above were delivered to a 96-well assay plate and basal fluorescence recorded as noted above. Then 20 μl of the compound being tested as a TRPA1 activator was added and fluorescence recorded. If any increase in fluorescence over background was noted, then the compound was considered an agonist.

human TRPA1 [3] = target: T1, human TRPA1; assay: FLIPR Ca2+ assay, reduction of hydrogen peroxide activation of TRPA1; assay type: cell-based; set-up: expressed in transfected cells; details: for inhibition at 100 µM: read-out: % Reduction of Hydrogen Peroxide TRPA1 Activation
Procedure: After centrifugation, a pellet of cells was formed in the bottom of the tube separating them from the supernatant solution.
The pelleted cells were re-suspended in 10 ml assay buffer and 90 μl aliquots (˜50,000 cells) per well delivered to a 96-well assay plate containing 10 μl of test compounds ([…]) or buffer control and incubated at room temperature for 30 minutes.

human TRPV1 = human TRPV1 (Homo sapiens, UniProt Q8NER1); assay: FLIPR Ca2+ assay, reduction of L-Menthol activation of TRPV1; details: for Average Ca2+ Counts / % Reduction of L-Menthol TRPV1 Activation: antagonist 100 μM against 1 mM L-Menthol; for inhibition at 100 µM: read-out: % Reduction of L-Menthol TRPV1 Activation
Procedure: To determine whether TRPV1 was activated, the intracellular calcium ion (Ca^+2) levels from cells transfected with the TRPV1 receptor gene was measured. HEK-239 cells stably transfected with human TRPV1 were grown in 15 ml growth medium [high glucose DMEM (Dulbecco's Modification of Eagle's Medium) supplemented with 10% FBS (fetal bovine serum), 100 g/ml Penicillin/streptomycin, 100 g/ml G418] in a 75 Cm2 flask for 3 days at 33° C. in a mammalian cell culture incubator set at 5% CO2. Cells were detached with addition of 10 ml of PBS (phosphate buffered saline) by hand shaking gently. Cells were transferred to a 50 ml tube and centrifuged at 850 rpm for 3 minutes to remove PBS. After centrifugation, a pellet of cells formed in the bottom of the tube separating them from the supernatant solution. The supernatant was discarded and the cell pellet suspended in 1 ml of fresh growth medium to which 5 μl (12.5 g) of Fluo-4 AM (Molecular Probes, Inc., Eugene, Oreg.) calcium indicator was added and incubated for 30 minutes with gentle shaking.
The pelleted cells were re-suspended in 10 ml assay buffer and 90 μl aliquots (˜50,000 cells) per well delivered to a 96-well assay plate containing 10 μl of test compounds (1 mM in assay buffer, final concentration 100 μM) or buffer control and incubated at room temperature for 30 minutes. After 30 minutes, the plate was placed into a fluorometric imaging plate reader (FLIPR384 from Molecular Devices) and basal fluorescence recorded (excitation wave length 488 nm and emission wave length 510 nm). Then 20 μl of the compound being tested as a TRPV1 receptor activator was added and fluorescence recorded. […] It may be no difference (no effect), or negative (means antagonist or desensitizer) or positive (enhancer, also known as positive allosteric modulator). […] To determine if a compound was an antagonist or a desensitizer, the direct effect of a test compound was determined. For determining the direct effect of test compounds on TRPV1, 100 μl aliquots (˜50,000 cells) of cells prepared as described above were delivered to a 96-well assay plate and basal fluorescence recorded as noted above. Then 20 μl of the compound being tested as a TRPV1 receptor activator was added and fluorescence recorded. If any increase in fluorescence over background was noted, then the compound was considered an agonist. The agonist activity was expressed relative to that observed with a benchmark agonist such as 350 nM Capsaicin for TRPV1.
100 μM of antagonist was tested against 1 mM of L-Menthol to determine the level of reduced TRPV1 receptor activation by L-Menthol. Each antagonist compound was run with 1 mM of L-Menthol as a control and the antagonist activity of each compound was determined by comparing the Ca^2+ levels of the control with the antagonist compound being tested.

[4] = 100 μM antagonist vs 1 mM L-Menthol
[5] = 100 μM antagonist vs 500 μM hydrogen peroxide
[6] = compound 100 μM against 200 μM hydrogen peroxide, Sets 1-4

T1 sequence (O75762 whole entry): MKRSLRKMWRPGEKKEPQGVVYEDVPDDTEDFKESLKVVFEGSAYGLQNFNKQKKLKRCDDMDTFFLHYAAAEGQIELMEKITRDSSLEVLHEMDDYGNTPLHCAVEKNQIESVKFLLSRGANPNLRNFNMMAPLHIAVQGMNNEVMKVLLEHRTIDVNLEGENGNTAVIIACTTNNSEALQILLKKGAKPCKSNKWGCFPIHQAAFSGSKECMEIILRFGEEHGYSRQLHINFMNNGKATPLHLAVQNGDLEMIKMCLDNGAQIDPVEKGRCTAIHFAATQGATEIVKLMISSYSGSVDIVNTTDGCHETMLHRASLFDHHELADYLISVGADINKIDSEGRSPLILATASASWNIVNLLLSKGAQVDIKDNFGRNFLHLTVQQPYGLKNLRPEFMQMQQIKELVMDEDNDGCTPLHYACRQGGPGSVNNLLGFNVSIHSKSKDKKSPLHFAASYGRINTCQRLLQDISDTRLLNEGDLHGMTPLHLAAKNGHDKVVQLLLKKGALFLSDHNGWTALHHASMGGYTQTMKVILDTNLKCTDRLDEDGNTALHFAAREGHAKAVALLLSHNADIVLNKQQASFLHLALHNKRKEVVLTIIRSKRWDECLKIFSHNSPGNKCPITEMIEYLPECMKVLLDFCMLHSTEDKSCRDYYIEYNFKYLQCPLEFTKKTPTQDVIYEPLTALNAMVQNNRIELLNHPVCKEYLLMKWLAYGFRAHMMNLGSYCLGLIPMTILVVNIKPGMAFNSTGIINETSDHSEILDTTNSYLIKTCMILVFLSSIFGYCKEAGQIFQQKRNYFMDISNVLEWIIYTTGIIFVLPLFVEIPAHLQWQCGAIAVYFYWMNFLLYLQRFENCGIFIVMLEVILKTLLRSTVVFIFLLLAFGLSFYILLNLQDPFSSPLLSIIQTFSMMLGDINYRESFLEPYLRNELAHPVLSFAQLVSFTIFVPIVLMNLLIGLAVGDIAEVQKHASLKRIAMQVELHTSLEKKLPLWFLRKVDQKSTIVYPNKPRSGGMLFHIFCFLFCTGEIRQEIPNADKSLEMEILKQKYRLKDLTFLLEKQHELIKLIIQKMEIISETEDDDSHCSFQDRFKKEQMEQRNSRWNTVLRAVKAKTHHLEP
Chain of human TRPV1 (Q8NER1 whole entry): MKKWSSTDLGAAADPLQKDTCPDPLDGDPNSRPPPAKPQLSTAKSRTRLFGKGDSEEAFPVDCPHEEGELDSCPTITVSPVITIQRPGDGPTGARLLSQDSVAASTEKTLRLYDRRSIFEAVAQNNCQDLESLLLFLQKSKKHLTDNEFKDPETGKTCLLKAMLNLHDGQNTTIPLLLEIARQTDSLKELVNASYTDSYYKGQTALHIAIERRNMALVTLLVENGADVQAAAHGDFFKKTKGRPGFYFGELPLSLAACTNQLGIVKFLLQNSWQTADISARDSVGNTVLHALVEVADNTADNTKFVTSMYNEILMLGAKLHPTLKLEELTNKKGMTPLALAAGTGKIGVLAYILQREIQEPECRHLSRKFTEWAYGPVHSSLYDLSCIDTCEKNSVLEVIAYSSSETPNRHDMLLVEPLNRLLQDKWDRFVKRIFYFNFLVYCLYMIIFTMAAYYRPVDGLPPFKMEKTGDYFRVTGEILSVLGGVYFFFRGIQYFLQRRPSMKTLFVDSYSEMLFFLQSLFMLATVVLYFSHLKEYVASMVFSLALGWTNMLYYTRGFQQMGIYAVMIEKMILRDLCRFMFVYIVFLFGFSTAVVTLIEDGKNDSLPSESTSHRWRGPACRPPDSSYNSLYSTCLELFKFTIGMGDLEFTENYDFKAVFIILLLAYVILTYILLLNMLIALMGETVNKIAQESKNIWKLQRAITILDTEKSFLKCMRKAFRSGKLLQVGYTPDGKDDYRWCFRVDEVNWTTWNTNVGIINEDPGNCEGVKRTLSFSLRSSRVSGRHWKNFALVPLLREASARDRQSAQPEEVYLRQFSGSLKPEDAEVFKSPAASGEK

| Compound | Block of AITC activation of TRPA1 (human TRPA1 [1]; 100 μM antagonist) | Block of L-Menthol activation of TRPA1 (human TRPA1 [2]; [4]) | Block of hydrogen peroxide activation of TRPA1 (human TRPA1 [3]; [5]) | Average Ca++ Counts (human TRPA1 [3]; [6]) [Counts] | inhibition at 100 µM (human TRPA1 [3]; [6]) [%] | Average Ca2+ Counts (human TRPV1) [Counts] | inhibition at 100 µM (human TRPV1) [%] | inhibition at 100 µM (human TRPA1 [3]) [%] | % Reduction of Hydrogen Peroxide TRPA1 Activation (human TRPA1 [3]; [6]) [%] | % Reduction of L-Menthol TRPV1 Activation (human TRPV1) [%] | Average Ca++ Counts (human TRPA1 [3]) [Counts] | Block of hydrogen peroxide activation of TRPA1 (human TRPA1 [3]) | Block of AITC activation of TRPA1 (human TRPA1 [1]) | Block of L-Menthol activation of TRPA1 (human TRPA1 [2]) |
| --- | --- | --- | --- | --- | --- | --- | --- | --- | --- | --- | --- | --- | --- | --- |
| CC1SCCS1 [2-methyl-1,3-dithiolane] | Block menthol, H2O2, and AITC on TRPA1 | Block menthol, H2O2, and AITC on TRPA1 | Block menthol, H2O2, and AITC on TRPA1 | 2402.0 | 72.5 | 2650.5 | 34.3 |  |  |  |  |  |  |  |
| O=C(CCl)c1ccccc1 [2-chloroacetophenone] | Block menthol, H2O2, and AITC on TRPA1 | Block menthol, H2O2, and AITC on TRPA1 | Block menthol, H2O2, and AITC on TRPA1 | 1199.5 |  | 1313.0 | 31.2 | 88.7 |  |  |  |  |  |  |
| CC1(O)CSC(C)(O)CS1 (centres unmarked) [2,5-dimethyl-1,4-dithiane-2,5-diol] | Block menthol, H2O2, and AITC on TRPA1 | Block menthol, H2O2, and AITC on TRPA1 | Block menthol, H2O2, and AITC on TRPA1 | 2420.0 | 77.2 | 713.7 | 58.9 |  |  |  |  |  |  |  |
| CCCCCCCCCCCCCCCCCC(=O)OCC(O)CO (racemic) [1-stearoyl-rac-glycerol] | Block menthol, H2O2, and AITC on TRPA1 | Block menthol, H2O2, and AITC on TRPA1 | Block menthol, H2O2, and AITC on TRPA1 | 3131.0 | 55.5 | 4708.0 | 26.4 |  |  |  |  |  |  |  |
| [Cu+].[I-] [copper(i) iodide] | Block menthol, H2O2, and AITC on TRPA1 | Block menthol, H2O2, and AITC on TRPA1 | Block menthol, H2O2, and AITC on TRPA1 |  |  | 651.5 |  |  | 90.4 | 89.8 |  |  |  |  |
| O=CCc1ccccc1 [phenylacetaldehyde] | Block menthol, H2O2, and AITC on TRPA1 | Block menthol, H2O2, and AITC on TRPA1 | Block menthol, H2O2, and AITC on TRPA1 | 2578.5 | 75.7 | 919.3 | 49.4 |  |  |  |  |  |  |  |
| c1ccc(SSc2ccccc2)cc1 [diphenyl disulfide] | Block menthol, H2O2, and AITC on TRPA1 | Block menthol, H2O2, and AITC on TRPA1 |  |  |  | 1630.5 | 64.9 | 81.1 |  |  | 1112.0 | Block menthol, H2O2, and AITC on TRPA1 |  |  |
| manganese chloride |  |  | Block menthol, H2O2, and AITC on TRPA1 | 2872.5 |  | 3922.0 |  |  | 59.2 | 38.7 |  |  | Block menthol, H2O2, and AITC on TRPA1 | Block menthol, H2O2, and AITC on TRPA1 |
| CCCCCCCCCC(C)=O [2-undecanone] | Block menthol, H2O2, and AITC on TRPA1 | Block menthol, H2O2, and AITC on TRPA1 |  |  |  | 1282.3 | 32.6 | 56.8 |  |  | 4581.0 | Block menthol, H2O2, and AITC on TRPA1 |  |  |
| Cc1cc(S)c(C)o1 [2,5-dimethylfuran-3-thiol] | BLOCK BOTH MENTHOL AND AITC ON TRPA1 | BLOCK BOTH MENTHOL AND AITC ON TRPA1 |  |  |  | 1443.0 | 25.2 |  |  |  |  |  |  |  |
| O=C(CCc1ccc(O)cc1)c1c(O)cc(O)cc1O [phloretin] | Block menthol, H2O2, and AITC on TRPA1 | Block menthol, H2O2, and AITC on TRPA1 | Block menthol, H2O2, and AITC on TRPA1 | 215.0 | 96.9 | 4616.5 | 27.9 |  |  |  |  |  |  |  |
| CCCCOC(=O)c1ccc(O)cc1 [butyl 4-hydroxybenzoate] | Block menthol, H2O2, and AITC on TRPA1 | Block menthol, H2O2, and AITC on TRPA1 |  |  |  | 319.0 | 77.2 | 96.1 |  |  | 411.0 | Block menthol, H2O2, and AITC on TRPA1 |  |  |
| CSCCCN=C=S [3-(methylthio)propyl isothiocyanate] | BLOCK BOTH MENTHOL AND AITC ON TRPA1 | BLOCK BOTH MENTHOL AND AITC ON TRPA1 |  |  |  | 1426.7 | 25.9 |  |  |  |  |  |  |  |
| O=C(O)CCC(=O)O [succinic acid] | BLOCK BOTH MENTHOL AND AITC ON TRPA1 | BLOCK BOTH MENTHOL AND AITC ON TRPA1 |  |  |  | 1045.0 | 43.6 |  |  |  |  |  |  |  |
| CC(S)C(C)S (centres unmarked) [2,3-butanedithiol] | Block menthol, H2O2, and AITC on TRPA1 | Block menthol, H2O2, and AITC on TRPA1 | Block menthol, H2O2, and AITC on TRPA1 | 1280.5 | 87.9 | 586.0 | 64.8 |  |  |  |  |  |  |  |
